The text below walks through data of US6753337B2, “Alkynyl containing hydroxamic acid compounds as matrix metalloproteinase/tace inhibitors” (Wyeth Holdings Corporation, priority 1999, dated 2004).

Structures can show the parent of a compound that is named as a salt.

The target in experiment [1] is TNF-α converting enzyme (TACE) (Homo sapiens, UniProt P78536). Description: Test procedure for measuring TACE inhibition (fluorescent peptidyl substrate). It is filed as biochemical. The method, then:
Using 96-well black microtiter plates, each well receives a solution composed of 10 μL TACE (final concentration 1 μg/mL), 70 μL Tris buffer, pH 7.4 containing 10% glycerol (final concentration 10 mM), and 10 μL of test compound solution in DMSO (final concentration 1 μM, DMSO concentration <1%) and incubated for 10 minutes at room temperature. The reaction is initiated by addition of a fluorescent peptidyl substrate (final concentration 100 μM to each well and then shaking on a shaker for 5 sec.
The reaction is read (excitation 340 nm, emission 420 nm) for 10 min. and the increase in fluorescence over time is plotted as a linear line. The slope of the line is calculated and represents the reaction rate.
The mean (x±sem) of the control rate is calculated and compared for statistical significance (p<0.05) with drug-treated rates using Dunnett's multiple comparison test.

Experiment [2] addresses MMP-9 (Homo sapiens, UniProt P14780). Description: MMP-9 inhibition (thiopeptide or fluorescent peptide substrate). It is filed as biochemical. The settings on record: for IC50: read-out: MMP9 IC50; for MMP9 % inhibition: printed in the MMP9 IC50 column, concentration not given. The method, then: (§1) These standard pharmacological test procedures are based on the cleavage of a thiopeptide substrates such as Ac-Pro-Leu-Gly(2-mercapto-4-methyl-pentanoyl)-Leu-Gly-OEt by the matrix metalloproteinases MMP-1, MMP-13 (collagenases) or MMP-9 (gelatinase), which results in the release of a substrate product that reacts colorimetrically with DTNB (5,5′-dithiobis(2-nitro-benzoic acid)). The enzyme activity is measured by the rate of the color increase. The thiopeptide substrate is made up fresh as a 20 mM stock in 100% DMSO and the DTNB is dissolved in 100% DMSO as a 100 mM stock and stored in the dark at room temperature. Both the substrate and DTNB are diluted together to 1 mM with substrate buffer (50 mM HEPES pH 7.5, 5 mM CaCl2) before use. The stock of enzyme is diluted with buffer (50 mM HEPES, pH 7.5, 5 mM CaCl2, 0.02% Brij) to the desired final concentration. The buffer, enzyme, vehicle or inhibitor, and DTNB/substrate are added in this order to a 96 well plate (total reaction volume of 200 μl) and the increase in color is monitored spectrophotometrically for 5 minutes at 405 nm on a plate reader and the increase in color over time is plotted as a linear line.
(§2) Alternatively, a fluorescent peptide substrate is used. In this test procedure, the peptide substrate contains a fluorescent group and a quenching group. Upon cleavage of the substrate by an MMP, the fluorescence that is generated is quantitated on the fluorescence plate reader. The assay is run in HCBC assay buffer (50 mM HEPES, pH 7.0, 5 mM Ca^+2, 0.02% Brij, 0.5% Cysteine), with human recombinant MMP-1, MMP-9, or MMP-13. The substrate is dissolved in methanol and stored frozen in 1 mM aliquots. For the assay, substrate and enzymes are diluted in HCBC buffer to the desired concentrations. Compounds are added to the 96 well plate containing enzyme and the reaction is started by the addition of substrate. The reaction is read (excitation 340 nm, emission 444 nm) for 10 min. and the increase in fluorescence over time is plotted as a linear line.
(§3) For either the thiopeptide or fluorescent peptide test procedures, the slope of the line is calculated and represents the reaction rate. The linearity of the reaction rate is confirmed (r^2>0.85). The mean (x±sem) of the control rate is calculated and compared for statistical significance (p<0.05) with drug-treated rates using Dunnett's multiple comparison test. Dose-response relationships can be generated using multiple doses of drug and IC50 values with 95% CI are estimated using linear regression.

Experiment [3] deals with MMP-13 (Homo sapiens, UniProt P45452). Description: MMP-13 inhibition (thiopeptide or fluorescent peptide substrate). The settings on record: for IC50: read-out: MMP13 IC50; for MMP13 % inhibition: MMP13 IC50, concentration not given. It is filed as biochemical. On the procedure:
The enzyme activity is measured by the rate of the color increase. The thiopeptide substrate is made up fresh as a 20 mM stock in 100% DMSO and the DTNB is dissolved in 100% DMSO as a 100 mM stock and stored in the dark at room temperature. Both the substrate and DTNB are diluted together to 1 mM with substrate buffer (50 mM HEPES pH 7.5, 5 mM CaCl2) before use. The stock of enzyme is diluted with buffer (50 mM HEPES, pH 7.5, 5 mM CaCl2, 0.02% Brij) to the desired final concentration.
as §2, with “substrate.” for “substrate. The reaction is read (excitation 340 nm, emission 444 nm) for 10 min. and the increase in fluorescence over time is plotted as a linear line.”
For either the thiopeptide or fluorescent peptide test procedures, the slope of the line is calculated and represents the reaction rate. […] The mean (x±sem) of the control rate is calculated and compared for statistical significance (p<0.05) with drug-treated rates using Dunnett's multiple comparison test.

The subject of experiment [4] is THP-1 cells. Description: Human monocytic THP-1 cell differentiation assay for soluble proteins (THP-1 soluble protein assay). It is filed as cell-based. Conditions: LPS-stimulated THP-1 cells, soluble protein not given. The text has this:
Mitogenic stimulation of THP-1 cells cause differentiation into macrophage like cells with concomitant secretion of tumor necrosis factor (TNF-α) and TNF receptor (TNF-R p75/80 and TNF-R p55160) and Interleukin-8 (IL-8), among other proteins. In addition, non-stimulated THP-1 cells shed both the p75/80 and the p55/60 receptors over time. The release of membrane bound TNF-α and possibly TNF-R p75/80 and TNF-R p55/60, but not IL-8, is mediated by an enzyme called TNF-α converting enzyme or TACE.
THP-1 cells (from ATCC) are a human monocytic cell line which were obtained from the peripheral blood of a person with acute monocytic leukemia. They can be grown in culture and differentiated into macrophage like cells by stimulation with mitogens.
Each vial of cells are cultured for about two weeks prior to being used for an assay and then are used for only 4 to 6 weeks to screen compounds.
Cell exposure to DMSO was limited to 0.1% final concentration. […] Compounds can be evaluated for their effect on basal (non-stimulated) shedding of the receptors by replacing the LPS with […] of THP-1 media.
Plates are placed into an incubator set at 5% CO2 and at 37° C. After 4 hours of incubation, […] of tissue culture supernatant (TCS) is removed for use in an TNF-α ELISA. Following 24 hours of incubation, […] of TCS is removed and used for analysis in TNF-R p75/80, TNF-R p55160 and IL-8 ELISAs.
In addition, at the 24 hours timepoint, and the cells for each treatment group are collected by resuspension in 500 μl/well of THP-1 media and transferred into a FACS tube. […] The samples are run on a Becton Dickinson FaxCaliber FLOW cytometry machine and the amount of dye taken up by each cell is measured in the high red wavelength (FL3). Only cells with compromised membranes (dead or dying) can take up PI. The percent of live cells is calculated by the number of cells not stained with PI, divided by the total number of cells in the sample. The viability values calculated for the drug treated groups were compared to the viability value calculated for the vehicle treated mitogen stimulated group (“vehicle positive control”) to determine the “percent change from control”. This “percent change from control” value is an indicator of drug toxicity.
The quantity of soluble TNF-α, TNF-R p75/80 and TNF-R p55160 and IL-8 in the TCS of the THP-1 cell cultures are obtained with commercially available ELISAs from R&D Systems, by extrapolation from a standard curve generated with kit standards. The number of cells that either take up or exclude PI are measured by the FLOW cytometry machine and visualized by histograms using commercially available Cytologic software for each treatment group including all controls.
Biological variability in the magnitude of the response of THP-1 cell cultures requires that experiments be compared on the basis of percent change from “vehicle positive control” for each drug concentration. Percent change in each soluble protein evaluated from the “vehicle positive control” was calculated for each compound concentration with the following formula: [formula]
For the soluble protein (TNF-α, p75/80, p55/60, IL-8) studies under stimulated conditions, the mean pg/ml of duplicate wells were determined and the results expressed as percent change from “vehicle positive control”. For the soluble protein (p75/80 and p55/60 receptors) studies under non-stimulated conditions, the mean pg/ml of duplicate wells were determined and the results expressed as percent change from “vehicle positive control” utilizing the following formula: [formula]
IC50 values for each compound are calculated by non-linear regression analysis using customized software utilizing the JUMP statistical package.
For the cell viability studies, the viabilities (PI exclusion) of pooled duplicate wells were determined and the results expressed as % change from “vehicle positive control”.

For experiment [5], the target named is T1, MMP-1 (Homo sapiens, UniProt P03956).
T1 sequence (P03956 100-469): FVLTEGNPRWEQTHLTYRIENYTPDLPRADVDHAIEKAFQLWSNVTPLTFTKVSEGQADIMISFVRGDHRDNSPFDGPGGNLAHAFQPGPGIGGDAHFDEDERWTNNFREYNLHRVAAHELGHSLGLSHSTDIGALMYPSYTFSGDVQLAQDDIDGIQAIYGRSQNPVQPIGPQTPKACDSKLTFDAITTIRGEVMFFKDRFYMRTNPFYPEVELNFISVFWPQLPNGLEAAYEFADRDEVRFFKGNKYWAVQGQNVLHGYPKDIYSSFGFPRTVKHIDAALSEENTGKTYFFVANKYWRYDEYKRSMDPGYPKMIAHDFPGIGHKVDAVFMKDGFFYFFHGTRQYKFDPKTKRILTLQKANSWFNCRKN
The experiment can be described thus: MMP-1 inhibition (thiopeptide or fluorescent peptide substrate). It is filed as biochemical. Conditions: for MMP1 % inhibition: printed in the MMP1 IC50 column, concentration not given; for IC50: read-out: MMP1 IC50. The method, then:
as §1, §2, §3

MMP-9, sequence (P14780 94-707): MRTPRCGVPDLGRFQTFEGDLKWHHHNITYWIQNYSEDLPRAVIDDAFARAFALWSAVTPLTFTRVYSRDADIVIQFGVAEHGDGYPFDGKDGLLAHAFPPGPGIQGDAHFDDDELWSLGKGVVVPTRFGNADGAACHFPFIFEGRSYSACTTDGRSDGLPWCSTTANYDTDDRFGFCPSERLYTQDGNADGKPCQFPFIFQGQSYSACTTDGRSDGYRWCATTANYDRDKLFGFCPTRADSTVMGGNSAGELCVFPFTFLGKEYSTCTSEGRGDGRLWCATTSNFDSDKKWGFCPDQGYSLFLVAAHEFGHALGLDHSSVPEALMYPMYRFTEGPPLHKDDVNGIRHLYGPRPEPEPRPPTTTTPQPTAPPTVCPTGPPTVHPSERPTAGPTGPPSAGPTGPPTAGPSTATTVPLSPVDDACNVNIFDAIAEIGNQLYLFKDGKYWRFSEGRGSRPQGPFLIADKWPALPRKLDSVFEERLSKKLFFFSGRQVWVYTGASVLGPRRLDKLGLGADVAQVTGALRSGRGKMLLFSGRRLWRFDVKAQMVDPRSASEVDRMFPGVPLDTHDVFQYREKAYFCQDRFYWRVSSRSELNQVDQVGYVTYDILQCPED
TNF-α converting enzyme (TACE), sequence (P78536 215-824): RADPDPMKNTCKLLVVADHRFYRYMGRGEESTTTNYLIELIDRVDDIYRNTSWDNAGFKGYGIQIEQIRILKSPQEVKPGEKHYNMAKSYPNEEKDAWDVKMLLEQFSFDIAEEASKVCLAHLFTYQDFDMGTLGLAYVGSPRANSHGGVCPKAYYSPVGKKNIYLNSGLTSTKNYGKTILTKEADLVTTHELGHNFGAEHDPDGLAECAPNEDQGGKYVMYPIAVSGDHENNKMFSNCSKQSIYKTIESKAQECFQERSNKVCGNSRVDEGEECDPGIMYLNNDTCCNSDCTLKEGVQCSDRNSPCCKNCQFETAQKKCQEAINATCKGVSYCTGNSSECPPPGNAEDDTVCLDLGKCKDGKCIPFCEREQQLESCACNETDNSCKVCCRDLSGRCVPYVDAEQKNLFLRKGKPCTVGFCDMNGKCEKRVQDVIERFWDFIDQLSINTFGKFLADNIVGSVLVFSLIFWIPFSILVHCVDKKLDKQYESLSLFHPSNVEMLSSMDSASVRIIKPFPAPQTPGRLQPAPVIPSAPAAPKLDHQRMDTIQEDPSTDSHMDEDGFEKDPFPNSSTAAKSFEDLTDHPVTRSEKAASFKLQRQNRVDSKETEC

With `O=C(NO)C1(S(=O)(=O)c2ccc(OCC#CCN3CCOCC3)cc2)CCN(Cc2ccc(Br)cc2)CC1` [Example 13, 1-(4-Bromo-benzyl)-4-[4-(4-morpholin-4-yl-but-2-ynyloxy)-benzenesulfonyl]-piperdine-4-carboxylic acid hydroxyamide], the IC50 amounted to 882 nM in experiment [1], 2000 nM in experiment [2] and 800 nM in experiment [3]. The inhibition at 3 µM in experiment [4] is 69%.

Regarding `CC#CCOc1ccc(SC2(C(=O)NO)CCN(C(=O)OC(C)(C)C)CC2)cc1` [Example 14, 4-(4-But-2-ynyloxy-phenylsulfanyl)-4-hydroxycarbamoyl-piperidine-1-carboxylic acid tert-butyl ester], the inhibition at 1 µM in experiment [1] amounted to 67%. The MMP1 % inhibition in experiment [5] is given as 26%. The same compound had an MMP9 % inhibition in experiment [2] of 21%. In experiment [3], this compound displayed an MMP13 % inhibition of 32%.

`CC#CCOc1ccc(SC2(C(=O)NO)CCNCC2)cc1` [Example 15, 4-(4-But-2-ynyloxy-phenylsulfanyl)-piperidine-4-carboxylic acid hydroxyamide] yielded an inhibition at 1 µM in experiment [1] of 38%. The MMP1 % inhibition in experiment [5] is given as 24%. Besides, in experiment [2], the MMP9 % inhibition is reported as 25%. Further, the MMP13 % inhibition in experiment [3] is reported as 24%.

In the case of `CC#CCOc1ccc(SCC2(C(=O)NO)CCOCC2)cc1` [Example 17, 4-(4-But-2-ynyloxy-phenylsulfanylmethyl)-tetrahydro-pyran-4-carboxylic acid hydroxyamide], the IC50 in experiment [1] worked out at 139 nM; in experiment [2], 2300 nM; in experiment [3], 946 nM. In experiment [4], this compound showed an inhibition at 3 µM of 0%.

For `CC#CCOc1ccc(S(=O)(=O)CC2(C(=O)NO)CCOCC2)cc1` [Example 18, 4-(4-But-2-ynyloxy-benzenesulfonylmethyl)-tetrahydro-pyran-4-carboxylic acid hydroxyamide], the figures for the IC50 in experiment [1], in experiment [2] and in experiment [3] were 11.4 nM, 1280 nM and 98 nM, respectively. Moreover, the inhibition at 3 µM in experiment [4] is 45%.

For `CC#CCOc1ccc([S+]([O-])CC2(C(=O)NO)CCOCC2)cc1` (stereo not shown) [Example 19, 4-(4-But-2-ynyloxy-benzenesulfinylmethyl)-tetrahydro-pyran-4-carboxylic acid hydroxyamide], the IC50 in experiment [1] is 74 nM; in experiment [3], 1320 nM. This compound registered an inhibition at 3 µM in experiment [4] of 4%.

On to `CC#CCOc1ccc(S(=O)(=O)CC2(C(=O)NO)CCN(CC#CC)CC2)cc1` [Example 37, 1-(2-Butynyl)-4-({[4-(2-butynyloxy)phenyl]sulfonyl}methyl)-N-hydroxy-4-piperidinecarboxamide hydrochloride], for which the IC50 stood at 18 nM in experiment [1], 8600 nM in experiment [5], 8580 nM in experiment [2] and 1020 nM in experiment [3].

`CC#CCOc1ccc(S(=O)(=O)CC2(C(=O)NO)CCN(C(=O)OC)CC2)cc1` [Example 39, Methyl 4-({[4-(2-butynyloxy)phenyl]sulfonyl}methyl)-4-[(hydroxyamino)-carbonyl]-1-piperidinecarboxylate]: the IC50 amounted to 11 nM in experiment [1], 3770 nM in experiment [5], 4280 nM in experiment [2] and 809 nM in experiment [3].
